In assay [1] the target is T1, recombinant human cGAS enzyme (hcGAS-ΔN, residues 147–522) (Homo sapiens, UniProt Q8N884).
T1 construct: N-terminally truncated human cGAS (hcGAS-ΔN, residues 147–522); 6xHis-SUMO (N, cleaved yes); made in house; host or cells: Escherichia coli BL21 (DE3)
Kind of assay: RNA-based fluorescent biosensor assay of cGAS activity (2',3'-cGAMP formation), in vitro screening. It is filed as biochemical. As to conditions: for Remaining activity (%), Fig. 1a source data / remaining activity at 20 µM: 20 μM, replicate values; for remaining activity at 20 µM: read-out: Remaining activity (%), Fig. 1a source data; for inhibition at 20 µM / Inhibition %: peptides screened at 20 μM, Supplementary Table 1 / Fig. S5b; for inhibition at 20 µM: read-out: Inhibition %; for Inhibition %: 20 µM. Put shortly: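 In 40 mM Tris-HCl pH 7.5, 100 mM NaCl, 10 mM MgCl2, ISD (0.5 μM) started the reaction with hcGAS-ΔN (1.5 μM), ATP (1 mM) and GTP (1 mM). Incubation was 2 h at 37 °C, with compounds screened at 20 μM. 2',3'-cGAMP formed was quantified with an RNA-based fluorescent biosensor.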

Assay [2] relates to dsDNA-stimulated THP1 cells. As to the kind of experiment: qPCR of IFNB1/CXCL10/IL6 mRNA in THP1 cells stimulated by dsDNA (ISD, HSV60mer). It is filed as cell-based, human. The following applies: THP1, dsDNA 6 h; hits 10 μM; replicate values. The source says:
(§1) To screen direct cGAS inhibitors targeting protein-DNA interface from our developed focused library of macrocyclic peptides, we applied an RNA-based fluorescent biosensor for 2’,3’-cGAMP to detect cGAS activity in vitro (Supplementary Fig. 1a)[49]. The formation of 2’,3’-cGAMP from ATP and GTP was catalyzed by recombinant human cGAS enzyme (hcGAS-ΔN, residues 147–522, Supplementary Fig. 1b) in the presence of ISD (interferon stimulatory DNA, a 45-bp dsDNA), which was readily quantified by the RNA-based fluorescent biosensor and was further confirmed by ion exchange chromatography (Supplementary Fig. 1c). […] Subsequently, a total of 90 macrocyclic peptides were screened at a concentration of 20 μM (Fig. 1a and Supplementary Fig. 1e), and 4 hits (XQ2, XQ8, XQ19, and XQ46) were obtained for further testing at a cut-off of 40% inhibition (Supplementary Table 1). To evaluate the inhibitory effect of the hits against cGAS in cells, we employed real-time quantitative PCR (qPCR) to examine mRNA levels of IFNΒ1 in THP1 cells. The reported cGAS inhibitor RU.521 was used as the positive control, and the non-active peptide XQ28 in the screening assay was used as the negative control. […] The inhibition of cGAS by these hits was further confirmed in the reporter cell line THP1-Lucia ISG (Invivogen) that expresses secreted luciferase induced by an IRF3-inducible ISG54 promoter (Fig. 1c). The discrepancy between the inhibitory effect of the hits in protein and cellular assays may be attributed to their different cellular permeability.
The indicated cells were stimulated with either ISD (Sangon Biotech), HSV-1 (Provided by Dr. Zhengfan Jiang), HSV60mer (Sangon Biotech), SATE-cddA[70], 2’3’-cGAMP (Invivogen, Cat# tlrl-nacga23-1), ADU-S100 (MedChemExpress, Cat# HY-12885A) or Poly(I:C) (Invivogen, Cat# tlrl-pic) after XQ2 or XQ2B treatment. Total RNA was isolated from indicated cells that incubated with the drugs for indicated time or mice tissues by using NucleoZOL reagent (MACHEREY-NAGEL) according to the manufacturer’s instructions. The quantifications of mRNA levels were carried out by real-time PCR using a PerfectStart® Uni RT&qPCR Kit (TransGen Biotech) on the QuantStudio 5 qPCR machine (Applied Biosystems). Samples were carried out in triplicate and the target CT values were normalized to GAPDH CT values. Primers of qPCR used in this study can be found in Supplementary Table S2.

The test system of a further assay is THP1-Lucia ISG cells. Kind of assay: Luciferase reporter assay, dsDNA stimulation. It is filed as cell-based, human. Set-up: Type I interferon response, luciferase activity, Fig. 1c / luciferase activity, Fig. 2a: scale not given here. The following applies: dsDNA 24 h; replicate values.
From the text: as §1
THP1-Lucia ISG cells (Invivogen) were seeded into a 96-well plate and incubated with RU.521 (Invivogen) or XQ2 for the indicated time, and then transfected with dsDNA by lipofectamine 2000 (Invitrogen) or infected by HSV-1 with the indicated titer for 24 h. The supernatant was collected and 50 μL QUANTI-Luc Luciferase reagent (Invivogen) was added to 20 μL supernatants per well, and luciferase luminescence was detected by a microplate reader (BioTek Synergy H1) immediately.

SMILES strings stand for the structures. “And” between values parts separate entries of the source, which are not always exact repeats. Equal entries are not always repeated. Square brackets hold non-standard residues; d marks the D form. Peptide text beside a SMILES is read from it.

The values below come from publication PMC10545747, “Development of cyclopeptide inhibitors of cGAS targeting protein-DNA interaction and phase separation” (Nature Communications, 2023).

T1 sequence (Q8N884 147-522, stated change not applied): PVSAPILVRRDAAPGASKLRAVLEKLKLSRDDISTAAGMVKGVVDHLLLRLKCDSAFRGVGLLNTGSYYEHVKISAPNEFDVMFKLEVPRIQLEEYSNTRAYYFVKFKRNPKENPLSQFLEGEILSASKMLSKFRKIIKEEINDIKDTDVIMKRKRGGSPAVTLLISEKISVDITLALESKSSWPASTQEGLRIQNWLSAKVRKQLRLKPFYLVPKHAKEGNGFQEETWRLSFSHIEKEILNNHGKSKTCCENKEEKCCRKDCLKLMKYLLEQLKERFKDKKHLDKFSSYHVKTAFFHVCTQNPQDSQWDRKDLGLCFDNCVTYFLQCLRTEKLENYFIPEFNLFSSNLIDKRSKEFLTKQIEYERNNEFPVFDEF

As to `N=C(N)NCCC[C@@H]1NC(=O)[C@@H]2CCCN2C(=O)[C@H](Cc2ccccc2)NC(=O)[C@H](CCCNC(=N)N)NC(=O)[C@@H]2CCCN2C(=O)[C@H](Cc2ccccc2)NC1=O` [XQ28, Cyclo (RFPRFP)] (cyclo(FPRFPR)), in assay [1], the “cGAS activity in the biosensor assay” value was “non-active”; the “Remaining activity (%), Fig. 1a source data” value (from here on “Remaining activity (%)”) is 109.037% and 108.058%; the remaining activity at 20 µM turned out to be 107%; the inhibition at 20 µM amounted to 0%. Also, the “IFNB1 mRNA, qPCR, Fig. 1b” value in assay [2] is 80.7818 and 80.352 and 88.8517. Also, the “Type I interferon response, luciferase activity, Fig. 1c” value (shortened to “Type I interferon response”) in the assay on THP1-Lucia ISG cells was 1.441 and 0.666 and 1.434.
On to `CC(C)C[C@@H]1NC(=O)[C@H](CCCNC(=N)N)NC(=O)[C@H](C(C)C)NC(=O)[C@H](C)NC(=O)[C@@H](Cc2ccccc2)NC(=O)[C@H](CC(C)C)NC(=O)[C@H](CCCNC(=N)N)NC(=O)[C@H](C(C)C)NC(=O)[C@H](C)NC(=O)[C@@H](Cc2ccccc2)NC1=O` [XQ8, Cyclo (LfAVRLfAVR)] (cyclo(AVRL[dF]AVRL[dF])), for which, in assay [1], the “Remaining activity (%)” value was 48.5808% and 47.6977%; the remaining activity at 20 µM was 48.8%; the Inhibition % is recorded as ≥ 40%; the inhibition at 20 µM came out at 52%. In addition, the “IFNB1 mRNA, qPCR, Fig. 1b” value in assay [2] is 50.5074 and 61.5926 and 57.7936. Further, the “Type I interferon response” value with THP1-Lucia ISG cells was 1.122 and 0.7764 and 0.491.
For `CC(C)C[C@@H]1NC(=O)[C@H](CCCNC(=N)N)NC(=O)[C@H](C(C)C)NC(=O)[C@@H]2CCCN2C(=O)[C@@H](Cc2ccccc2)NC(=O)[C@H](C)NC(=O)[C@H](CCCNC(=N)N)NC(=O)[C@H](C(C)C)NC(=O)[C@H](C)NC(=O)[C@@H](Cc2ccccc2)NC1=O` [XQ19, Cyclo (AfPVRLfAVR)] (cyclo(AVRA[dF]PVRL[dF])), in assay [1], the “Remaining activity (%)” value was 39.7338% and 39.7351%; the remaining activity at 20 µM worked out at 40.1%; the Inhibition % is given as ≥ 40%; the inhibition at 20 µM was 60%. Besides, in assay [2], the “IFNB1 mRNA, qPCR, Fig. 1b” value was 69.3649 and 64.1779 and 70.7063. In addition, the “Type I interferon response” value with THP1-Lucia ISG cells is 0.9185 and 0.6328 and 0.8726.
As to `CC(C)C[C@@H]1NC(=O)[C@H](CC(C)C)NC(=O)[C@H](C(C)C)NC(=O)[C@@H]2CCCN2C(=O)[C@@H](Cc2ccccc2)NC(=O)[C@H](C)NC(=O)[C@H](CCCNC(=N)N)NC(=O)[C@H](C(C)C)NC(=O)[C@@H]2CCCN2C(=O)[C@@H](Cc2ccccc2)NC1=O` [XQ46, Cyclo (AfPVLLfPVR)] (cyclo(A[dF]PVLL[dF]PVR)), in assay [1], the “cGAS activity in the biosensor assay” value is “comparable inhibitory activity as that of XQ2, XQ8 and XQ19”; the “Remaining activity (%)” value is 43.44% and 43.4055%; the remaining activity at 20 µM came out at 43.8%; the Inhibition % is recorded as ≥ 40%. Further, in assay [1], the inhibition at 20 µM amounted to 56%. Also, the “IFNB1 mRNA, qPCR, Fig. 1b” value in assay [2] was 39.5997 and 41.1038 and 45.9315. The “Type I interferon response” value with THP1-Lucia ISG cells was 0.8903 and 0.5111 and 0.5713.
